Results as given in patent publication US20230024528A1, “METHODS OF USE OF ANTI-TREM2 ANTIBODIES” (Alector LLC, priority 2019, published 2023).

Test system: human macrophages
Test: Human macrophage cell viability and survival following CSF1R inhibition with PLX3397, CellTiter-Glo
Assay type: cell-based
Conditions: PLX3397 30 nM alone, complete RPMI media
Description: To evaluate the ability of an anti-TREM2 antibody to sustain survival of human macrophages after CSF1R inhibition, the ability of AL2p-58 huIgG1 PSEG to enhance cell-viability and survival in the presence of CSF1R inhibitor PLX3397 was tested (DeNardo et al., Cancer Discov (2011) 1(1):54-67. 22039576t; Peng, et al., J. of Exp Canc Res (2019) 38(1):372. PMID: 31438996). Similar to CSF1 withdrawal experiments, human derived macrophages were plated onto 96-well plates on Day 6 and treated with IgG1, PLX3397 (30 nM), AL2p-58 huIgG1 PSEG (10 μg/mL) or a combination of PLX3397 and AL2p-58 huIgG1 PSEG on Day 7, all in complete RPMI media. Cell viability was quantified using the CellTiter-Glo luminescent viability assay (Promega) on each subsequent day.

FC(F)(F)c1ccc(CNc2ccc(Cc3c[nH]c4ncc(Cl)cc34)cn2)cn1 [PLX3397, reference compound]
cell viability of human macrophages treated with CSF1R inhibitor alone: reduced cell viability
